From PubChem BioAssay (NCI)
Several values for one entry are separate records, joined by “and”; a condition that tells them apart may be missing. Equal values may be shown once.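 Method: 48-hour compound exposure of cells in 96-well plates, five concentrations, linear interpolation of endpoints. GI50 is the concentration that inhibits growth by half. TGI: total growth inhibition.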

Columns and labels:
Assay in all cases: DTP human tumour cell line panel, 48 h
ACHN renal = tested on: ACHN renal
CAKI-1 renal = tested on: CAKI-1 renal
K-562 leukemia = tested on: K-562 leukemia
MCF7 breast = tested on: MCF7 breast
OVCAR-3 ovarian = tested on: OVCAR-3 ovarian
PC-3 prostate = tested on: PC-3 prostate
SN12C renal = tested on: SN12C renal
UACC-257 melanoma = tested on: UACC-257 melanoma
UACC-62 melanoma = tested on: UACC-62 melanoma
MALME-3M melanoma = tested on: MALME-3M melanoma

Compound	GI50 (ACHN renal) [µM]	TGI (ACHN renal) [µM]	GI50 (CAKI-1 renal) [µM]	TGI (CAKI-1 renal) [µM]	GI50 (K-562 leukemia)	TGI (K-562 leukemia) [µM]	GI50 (MCF7 breast) [µM]	TGI (MCF7 breast) [µM]	GI50 (OVCAR-3 ovarian) [µM]	TGI (OVCAR-3 ovarian)	GI50 (PC-3 prostate) [µM]	TGI (PC-3 prostate) [µM]	GI50 (SN12C renal) [µM]	TGI (SN12C renal)	GI50 (UACC-257 melanoma) [µM]	TGI (UACC-257 melanoma)	TGI (UACC-62 melanoma)	GI50 (MALME-3M melanoma) [µM]	TGI (MALME-3M melanoma)	GI50 (UACC-62 melanoma) [µM]
COc1ccc(/C=C\c2cc(OC)c(OC)c(OC)c2)cc1NC(=O)[C@@H](N)CO	0.0268	> 100	< 0.01	> 100	< 0.01 µM	> 100	0.0207	> 100	< 0.0122	0.0415 µM	0.0188	> 100	0.0468	> 100 µM	27.1	> 100 µM	> 100 µM			
COc1cccc2c(Nc3ccc(C(=O)NCCNCCO)cc3)cc(-c3ccccc3)nc12			> 100	> 100	22.3 µM	64.9			39.2	> 100 µM	35.4	> 100	34.3	> 100 µM	39	> 100 µM	> 100 µM	21	37.9 µM	62.4
CCC12CCC(O)C1N(C)CCC2Sc1ccccc1 (centres undefined)		> 100				> 100				> 100 µM				> 100 µM		> 100 µM	> 100 µM		> 100 µM	
Cc1cc(N(CCC#N)CCC#N)ccc1N=Nc1ccccc1[N+](=O)[O-]		> 100		> 100		> 100				> 100 µM				> 100 µM		> 100 µM	> 100 µM		> 100 µM	
COc1ccc(/C=C/C(=O)/C=C(/C=C/c2ccc(OC)c(OC)c2)OB(F)F)cc1OC	0.352	1.98			0.463 µM	> 100	0.4	> 100	0.324	1.04 µM	1.05	7.51			1.76	5.55 µM	2.16 µM	0.51	4.25 µM	0.574
CN(C)CCN1N=Nc2cccc3cccc1c23		> 100		> 100		> 100				> 100 µM				> 100 µM		> 100 µM	> 100 µM		> 100 µM	
N#C[C@]12CC3(CC[C@H]1CC1(C2)OCCO1)OCCO3		> 100		> 100		> 100				> 100 µM				> 100 µM		> 100 µM	> 100 µM		> 100 µM	
O=NN(CCCl)C(=O)NCc1ccc[n+]([O-])c1		> 100		> 100		> 100				> 100 µM				> 100 µM		> 100 µM	> 100 µM		> 100 µM	
CC1=CCP(C(F)(F)F)P(C(F)(F)F)C1 (centres undefined)		> 100		> 100		> 100				> 100 µM				> 100 µM		> 100 µM	> 100 µM		> 100 µM	
C=CC[P@@]1(=O)O[C@H](c2ccccc2)C(C)N1C(C)C (some centres undefined)		> 100				> 100				> 100 µM				> 100 µM			> 100 µM		> 100 µM	
Cc1c(C(=O)N/N=C/c2ccc(O)cc2)nnn1-c1ccnc2c(C(F)(F)F)cccc12	41.1	> 100	> 100	> 100	> 100 µM	> 100	9.12	> 100	> 100	> 100 µM	> 100	> 100	16.3	83.3 µM	> 100	> 100 µM	> 100 µM			> 100
Cc1c2cc[n+](C)cc2c(C)c2c1[nH]c1ccc(OC(C)C)cc12		> 100		> 35.1	1.02 µM and 2.55 µM	> 46.4				14.6 µM and 26.7 µM				7.69 µM and 9.59 µM		8.06 µM and 11.7 µM	8.04 µM and 12.7 µM		3.89 µM and 5.25 µM	
O=C(c1ccccc1)c1ccc2cccc(O)c2n1		> 100		> 100		> 100				> 100 µM				> 100 µM			> 100 µM		> 100 µM	
CN(C)CCCNC(=O)c1cc(NC(=O)c2cc(NC(=O)CCCN3c4ccccc4C=Cc4ccccc43)cn2C)cn1C	14.7	33.6	18.5	43.9	2.12 µM	4.97	4.2	> 100	13.4	54.2 µM	5.33	> 100	13.8	43 µM	4.5	30.6 µM				
CCCCCCC(O)C/C=C/CCCCCC/C(C(=O)OC)=C(/O)C(=O)OCC (centres undefined)		> 100		> 100		> 100				> 100 µM				> 100 µM		> 100 µM	> 100 µM		> 100 µM	
COC(=O)C(=O)C(C(=O)C(=O)Nc1ccc([N+](=O)[O-])cc1[N+](=O)[O-])c1nc2ccc([N+](=O)[O-])cc2[nH]c1=O (centres undefined)		> 100		> 100		> 100				> 100 µM				> 100 µM		> 100 µM	> 100 µM		> 100 µM	
CC1=C(C(=O)Nc2ccc(F)c(Cl)c2)C(c2cccc(O)c2)NC(=S)N1 (centres undefined)	24.5	> 50	> 50	> 50	16 µM	42.5	17.5	> 50	17.9	> 50 µM	32.1	> 50	12.7	39.2 µM	16.5	44.4 µM	36.6 µM			11.9
N#Cc1c2ccccc2c2nnc3cc(C(F)(F)F)ccc3n12	25.7	> 100	38.6	> 100	48.3 µM	> 100	10.7	80.9	79.9	> 100 µM	48.1	> 100						> 100	> 100 µM	
Cc1ccc(C)c(-n2c(-c3ccc(Br)cc3)csc2=NC(=O)c2ccccc2F)c1					3.47 µM	> 100			> 100	> 100 µM	3.29	> 100	> 100	> 100 µM	> 100	> 100 µM	> 100 µM	> 100	> 100 µM	> 100
